# Laboratory results reported in patent publication US7202261B2, “Calcilytic compounds” (NPS Pharmaceuticals, Inc., priority 1996, dated 2007).
# Counter-ions that a name gives are not always drawn.
# Tested on: dissociated bovine parathyroid cells
# Assay: Stimulation of PTH secretion
# Type: cell-based
# Conditions: Bos taurus, 0.5 h, 0.5 mM Ca2+, 30 minutes
# Experimental: This example illustrates the ability of different calcilytic compounds to exert a biological effect on PTH secretion. PTH secretion was determined using dissociated bovine parathyroid cells as described below for Compounds 32, 33, and 38. […] Stimulation of PTH secretion was assayed as follows: Parathyroid cell buffer (PCB) contains (mM): NaCl, 126; KCl, 4; MgSO4, 1; K2HPO4/KH2PO4, 0.7; Na-Hepes, pH 7.45, and variable amounts of CaCl2 as specified (reagent grade). PCB was typically supplemented with bovine serum albumin (BSA fraction V; ICN Biomedicals, Inc., Costa Mesa, Calif.; catalog #81-003) and 1 mg/mL of D-glucose (reagent grade) as indicated. Percoll purification buffer was prepared immediately before use by mixing 8 mL of Percoll (Pharmacia LKB, Alameda, Calif.; catalog #17-0891-01) and 7 mL of a twice-concentrated PCB solution without phosphate and containing 2 mM CaCl2. Parathyroid glands were obtained from calves within minutes of slaughter at an abattoir and shipped via overnight express on ice in PCB containing 1.25 mM CaCl2. The glands were trimmed and minced in ice-cold PCB containing 1.25 mM CaCl2, 1 mg/mL of D-glucose, and 2% BSA. […]
row,Compound,EC50 [µM]
1,"COc1ccc(CC(C)(C)NC[C@@H](O)COc2ccccc2)cc1 (single isomer, unassigned) [Compound 32, (R) or (S)—N-(2-Hydroxy-3-phenoxypropyl)-1,1-dimethyl-2-(4-methoxyphenyl)ethylamine Hydrochloride]",< 10
2,"COc1ccc(CC(C)(C)NCC(O)COc2cccc(OC)c2)cc1 (centres unmarked) [Compound 38, N-[2-Hydroxy-3-(3-methoxyphenoxy)propyl]-1,1-dimethyl-2-(4-methoxyphenyl)ethylamine Hydrochloride]",< 10
